In brackets after ≈: the same amount, converted by molar mass.

The data set is described as follows: Water solubility determination (HPLC). Format: physicochemical. The note with it: thermodynamic from solid, ultra-pure water, room temperature. The procedure:
at room tem p eratu re fo r 2 h. After centrifu gation at 3000×g fo r 10 min, the supernatant wa s transferred into a sample vial and dried with Sp ee d vac (Fish er Scientific). So lu ti on s fo r standards were prepared by using a series of different concentrations of ursolic acid (i.e., 0.1, 0.5, 1.0, 2. 0, 5.0 ug /mL in methanol ). Ea c h sample was in jec ted fo r analysis by liq uid chromatography‐tan dem mass spectrometry (UPLC‐MS/MS) with multip le react io n monitor ing (MRM) mode. (2) UPLC‐MS/MS analysis Sa m ples were analyzed wi t h Acquity UPLC syste m (Waters) cou ple d wi t h a Q‐TRAP 6500 mass spectrometer (Sciex). Spe cifically, 5 μL of each sample wa s loaded onto a C18 column (Waters Acquity UPLC BEH C18 1.7μm, 2.1mm x 50 mm). […]
Mass spectra were recorded with Analyst TF 1.6.2 software in th e MRM mode (Q1 mass: 455 Da, Q3 mass:455.1 Da , Time:100 ms, CE: ‐20, DP: ‐50: EP:‐ 7, CXP: ‐12). (3) Data analysis: Data files we re analyzed with quantitated with the “Quantitation Method” in th e An al yst software […]
slid e at a flow ra te of 25 μL/ min wi th 110 s contac t time and 250 s dissociation time. Th e background re s p o ns e was recorded using th e refere nce flow channel, and the background data wa s subtracted from the data fro m each injection sample. […]

`C[C@H]1[C@H](C)CC[C@]2(C(=O)NCC(=O)N(C)CCO)CC[C@]3(C)C(=CC[C@@H]4[C@@]5(C)CC[C@H](O)C(C)(C)[C@@H]5CC[C@]43C)[C@H]12` [UAMMC9]: the concentration in solution (solubility at 24 h) came to 0.0397 mg/mL (≈ 69.5 µM).

The values are drawn from paper PMC8710297, “Identification of potent SENP1 inhibitors that inactivate SENP1/JAK2/STAT signaling pathway and overcome platinum drug resistance in ovarian cancer” (Clinical and Translational Medicine, 2021).
